Read-outs that look alike come from different tables or passages of the source.
How the values were obtained:
Details in all cases: Dengue virus
DENV-3 = assay: Viral yield assay against DENV-3 in Vero cells; format: cell-based
Experimental: (§1) Compounds that were active in the primary screen were tested for activity in viral yield assays. […] Vero cells in 12-well plates were infected with dengue-2 virus at a multiplicity of infection (MOI) of 0.1, treated with compound (or DMSO as a control), incubated at 37° C., harvested 48 hours post infection and titered on Vero cells as described above. The EC50 was calculated through ExcelFit. Activities against other serotypes of dengue virus were determined in a similar way.

DENV-4 = assay: Viral yield assay against DENV-4 in Vero cells; format: cell-based
Experimental: as §1

[1] = system: Dengue-2 (Strain New Guinea C); assay: Viral yield assay against Dengue-2 in Vero cells; format: cell-based, Dengue virus
Outline: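 Vero cells were infected with dengue-2 at MOI 0.1, treated with compound (DMSO control), and kept at 37° C. They were harvested 48 hours post infection and yield was titered on Vero cells. EC50 came from the yield curve, and the other serotypes were run in a similar way.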

DENV-1 = assay: Viral yield assay against DENV-1 in Vero cells; format: cell-based
Experimental: as §1

[2] = DENV2, viral yield assay, Vero cells, MOI 0.1, 48 hours post infection, read-out: Activity (EC50 in μM) DENV-2
[3] = DENV2, Vero cells, read-out: Activity (EC50 in μM) DENV-2
[4] = Vero, 48 h, read-out: Activity (EC50 class) against Dengue-2 Virus in Vero cells
[5] = Vero cells, MOI 0.1, harvested 48 hours post infection, read-out: Activity (EC50 class) against Dengue-2 Virus in Vero cells

| Structure (SMILES) | EC50 (DENV-3; DENV3, viral yield assay) | EC50 (DENV-4; DENV4, viral yield assay) | EC50 [1, 2] | EC50 (DENV-1; DENV1, viral yield assay) | also measured |
| --- | --- | --- | --- | --- | --- |
| Nc1c(C(=O)Nc2cccc(C(F)(F)F)c2)sc2nc3c(cc12)CCCCC3 [Compound 368, 3-amino-N-(3-(trifluoromethyl)phenyl)-6,7,8,9-tetrahydro-5H-cyclohepta[b]thieno [3,2-e]pyridine-2-carboxamide] | < 5 µM | < 5 µM | < 5 µM | < 5 µM | – |
| Cc1ccc(-c2ccc3c(N)c(C(=O)Nc4ccc(Cl)cc4)sc3n2)cc1 [Compound 648, 3-amino-N-(4-chlorophenyl)-6-(p-tolyl) thieno[2,3-b]pyridine-2-carboxamide] | < 5 µM | < 5 µM | < 5 µM | < 5 µM | – |
| Cc1ccc(NC(=O)c2sc3nc(-c4ccc5c(c4)OCO5)ccc3c2N)c(Br)c1 [Compound 514, 3-amino-6-(1,3-benzodioxol-5-yl)-N-(2-bromo-4-methyl-phenyl)thieno[2,3-b] pyridine-2-carboxamide] | < 5 µM | < 5 µM | < 5 µM | < 5 µM | – |
| COc1ccc(-c2ccc3c(N)c(C(=O)Nc4ccc(C)c(Cl)c4)sc3n2)cc1OC [Compound 574, 3-amino-N-(3-chloro-4-mehtyl-phenyl)-6-(3,4-dimethoxyphenyl)thieno[2,3-b] pyridine-2-carboxamide] | < 5 µM | < 5 µM | < 5 µM | < 5 µM | – |
| COc1ccc(-c2ccc3c(N)c(C(=O)Nc4ccc(C)cc4Br)sc3n2)cc1OC [Compound 576, 3-amino-N-(2-bromo-4-methyl-phenyl)-6-(3,4-dimethoxyphenyl)thieno[2,3-b] pyridine-2-carboxamide] | < 5 µM | < 5 µM | < 5 µM | < 5 µM | – |
| Nc1c(C(=O)Nc2ccc(Cl)c(Cl)c2)sc2nc(-c3ccc(Cl)cc3)ccc12 [Compound 342, 3-amino-6-(4-chlorophenyl)-N-(3,4-dichloro-phenyl)thieno [2,3-b]pyridine-2-carboxamide] | < 5 µM | < 5 µM | < 5 µM | < 5 µM | – |
| Nc1c(C(=O)Nc2ccc(F)cc2)sc2nc(-c3ccc4c(c3)OCO4)ccc12 [Compound 603, 3-amino-6-(1,3-benzodioxol-5-yl)-N-(4-fluorophenyl)thieno[2,3-b]pyridine-2-carboxamide] | – | < 5 µM | – | – | EC50 ([1]; DENV2, Vero, 48 h, read-out: Activity (EC50 in μM) DENV-2): < 5 µM |
| COC(OC)c1ccc2c(N)c(C(=O)Nc3ccc(C(F)(F)F)cc3)sc2n1 [Compound 482, 3-amino-6-(dimethoxymethyl)-N-[4-(trifluoromethyl)phenyl]thieno[2,3-b] pyridine-2-carboxamide] | < 5 µM | < 5 µM | < 5 µM | < 5 µM | – |
| O=C(Nc1c(C(=O)Nc2nnc(-c3ccccc3)s2)sc2nc3c(cc12)CCCCC3)c1ccccn1 [Compound 360, N-(5-phenyl-1,3,4-thiadiazol-2-yl)-3-(picolinamido)-6,7,8,9-tetrahydro-5H-cyclohepta[b]thieno[3,2-e]pyridine-2-carboxamide] | – | – | – | – | EC50 (DENV-3; DENV3): > 25 µM; EC50 (DENV-4; DENV4): < 5 µM; EC50 [1, 3]: < 5 µM; EC50 (DENV-1; DENV1): > 25 µM |
| COc1ccc(-c2ccc3c(N)c(C(=O)Nc4ccc(C)c(F)c4)sc3n2)cc1OC [Compound 533, 3-amino-6-(3,4-dimethoxyphenyl)-N-(3-fluoro-4-methyl-phenyl)thieno[2,3-b] pyridine-2-carboxamide] | < 5 µM | < 5 µM | < 5 µM | < 5 µM | – |
| Nc1c(C(=O)N(CCC(=O)O)c2ccc(Br)cc2)sc2nc(-c3ccc(Cl)cc3)ccc12 [Compound 350, 3-(N-[3-amino-6-(4-chloro-phenyl)thieno [2,3-b]pyridine-2-carbonyl]-4-bromoanilino) propanoic acid] | < 5 µM | < 5 µM | < 5 µM | < 5 µM | – |
| Nc1c(C(=O)Nc2cccc(F)c2)sc2nc(-c3ccc(F)cc3)ccc12 [Compound 489, 3-amino-N-(3-fluroophenyl)-6-(4-fluroophenyl)thieno[2,3-b]pyridine-2-carboxamide] | < 5 µM | < 5 µM | < 5 µM | < 5 µM | – |
| Cc1ccc(NC(=O)c2sc3nc(-c4ccc5c(c4)OCO5)ccc3c2N)c(C)c1 [Compound 596, 3-amino-6-(1,3-benzodioxol-5-yl)-N-(2,4-dimethyphenyl)thieno[2,3-b]pyridine-2-carboxamide] | < 5 µM | < 5 µM | < 5 µM | < 5 µM | – |
| Nc1c(C(=O)Nc2cccc(C(F)(F)F)c2)sc2nc(-c3ccc4c(c3)OCO4)ccc12 [Compound 453, 3-amino-6-(1,3-benzodioxol-5-yl)-N-[3-(trifluoromethyl)phenyl]thieno[2,3-b] pyridine-2-carboxamide] | < 5 µM | < 5 µM | < 5 µM | < 5 µM | – |
| Cc1ccc(C)c(NC(=O)c2sc3nc(-c4cccs4)ccc3c2N)c1 [Compound 438, 3-amino-N-(2,5-dimethylphenyl)-6-(2-thienyl)thieno[2,3-b]pyridine-2-carboxamide] | < 5 µM | < 5 µM | < 5 µM | < 5 µM | – |
| COC(=O)c1ccc(NC(=O)c2sc3nc(-c4ccc(Cl)cc4)ccc3c2N)cc1 [Compound 645, methyl 4-[[3-amino-6-(4-chlorophenyl)thieno[2,3-b]pyridine-2-carbonyl]amino]benzoate] | < 5 µM | < 5 µM | < 5 µM | < 5 µM | – |
| O=C(O)CNc1c(C(=O)Nc2cccc(C(F)(F)F)c2)sc2nc(-c3cccs3)ccc12 [Compound 305, 2-[[6-(2-thienyl)-2-[[3-(trifluoromethyl)phenyl]carbamoyl]thieno[2,3-b]pyridin-3-yl]amino]acetic acid] | – | – | – | – | EC50 (DENV-3; DENV3): 5 to 25 µM; EC50 (DENV-4; DENV4): < 5 µM; EC50 [1, 3]: < 5 µM; EC50 (DENV-1; DENV1): < 5 µM |
| COc1ccc(-c2ccc3c(N)c(C(=O)Nc4ccc(Br)cc4)sc3n2)cc1 [Compound 469, 3-amino-N-(4-bromophenyl)-6-(4-methoxyphenyl)thieno[2,3-b]pyridine-2-carboxamide] | < 5 µM | < 5 µM | < 5 µM | < 5 µM | – |
| Nc1c(C(=O)Nc2ccc(OC(F)(F)F)cc2)sc2nc(-c3cccc(OC(F)F)c3)ccc12 [Compound 339, 3-amino-6-[3-(difluoromethoxy)phenyl]-N-[4-(trifluoromethoxy)phenyl]thieno[2,3-b]pyridine-2-carboxamide] | < 5 µM | < 5 µM | < 5 µM | < 5 µM | – |
| COc1ccc(-c2ccc3c(N)c(C(=O)Nc4ccc(OC(F)(F)F)cc4)sc3n2)cc1OC [Compound 584, 3-amino-6-(3,4-dimethoxyphenyl)-N-[4-(trifluoromethoxy)phenyl]thieno[2,3-b] pyridine-2-carboxamide] | – | < 5 µM | < 5 µM | – | – |
| COc1cccc(-c2ccc3c(N)c(C(=O)Nc4ccc(C)c(Br)c4)sc3n2)c1 [Compound 559, 3-amino-N-(3-bromo-4-methyl-phenyl)-6-(3-methoxyphenyl)thieno[2,3-b] pyridine-2-carboxamide] | < 5 µM | < 5 µM | < 5 µM | – | – |
| O=C(O)CNc1c(C(=O)Nc2nnc(-c3ccccc3)s2)sc2nc(Cl)ccc12 [Compound 299, 2-[[6-chloro-2-[(5-phenyl-1,3,4-thiadiazol-2-yl)carbamoyl]thieno[2,3-b]pyridin-3-yl]amino]acetic acid] | – | – | – | – | EC50 (DENV-4; DENV4): 5 to 25 µM; EC50 [1, 3]: 5 to 25 µM; EC50 (DENV-1; DENV1): 5 to 25 µM |
| Nc1c(C(=O)Nc2ccc(F)cc2Cl)sc2nc(-c3ccc(F)cc3)ccc12 [Compound 618, 3-amino-N-(2-chloro-4-fluoro-phenyl)-6-(4-fluorophenyl)thieno[2,3-b]pyridine-2-carboxamide] | – | – | < 5 µM | < 5 µM | – |
| Cc1cc(C)c2c(N)c(C(=O)NCCc3ccccc3)sc2n1 [Compound 257, 3-Amino-4,6-dimethyl-thieno[2,3-b]pyridine-2-carboxylic acid phenethyl-amide] | – | – | – | – | EC50 [1, 4]: > 25 µM |
| Cc1nc2c(sc3nc4c(cc32)COC(C)(C)C4)c(=O)n1CCc1ccccc1 [Compound 230, 3,8,8-Trimethyl-2-phenethyl-8,9-dihydro-2H,6H-7-oxa-11-thia-2,4,10-triaza-benzo[b]fluoren-1-one] | – | – | – | – | EC50 [1, 4]: > 25 µM |
| Cc1csc(NC(=O)c2sc3nc4c(cc3c2N)CN(C)CC4)n1 [Compound 39, 3-Amino-6-methyl-5,6,7,8-tetrahydro-thieno[2,3-b][1,6]naphthyridine-2-carboxylic acid (4-methyl-thiazol-2-yl)-amide] | – | – | – | – | EC50 [1, 5]: < 5 µM |
| Cc1ccc(Cl)cc1NC(=O)c1sc2nc(-c3ccc(F)cc3)ccc2c1N [Compound 621, 3-amino-N-(5-chloro-2-methyl-phenyl)-6-(4-fluorophenyl)thieno[2,3-b]pyridine-2-carboxamide] | – | – | < 5 µM | – | – |
| NC(=O)c1sc2nc(-c3cccs3)cc(-c3ccc(F)cc3)c2c1N [Compound 2, 3-Amino-4-(4-fluoro-phenyl)-6-thiophen-2-yl-thieno[2,3-b]pyridine-2-carboxylic acid amide] | – | – | – | – | EC50 [1, 5]: < 5 µM |

From patent US20170121344A1 (Siga Technologies, Inc., priority 2009, published 2017)
